Measured values reported in US8952021B2, “Compounds for the prevention and treatment of cardiovascular disease” (Resverlogix Corp., priority 2009, dated 2015).

Tested on: ApoA-I mRNA
Experiment: Quantification of ApoA-I mRNA in HepG2 cells (real-time PCR)
Assay type: cell-based
Design: key: Active: An active compound was defined as one that caused a ≧20% increase in ApoA-I mRNA at a concentration less than or equal to 100 μM
Details: fold induction relative to DMSO control, concentration less than or equal to 100 μM
Procedure: In this example, ApoA-I mRNA in tissue culture cells was quantitated to measure the transcriptional up-regulation of ApoA-I when treated with a compound of the invention.
HepG2 cells (approximately 2×10^5 per well) were placed in a 24-well plate in approximately 400 μL MEM, supplemented with 0.5% (v/v) FBS, 24 h before addition of the compound of interest. At time of harvesting, the spent media was removed from the HepG2 cells and immediately placed on ice (for immediate use) or at −80° C. (for future use) in ApoA-I and albumin ELISAs. The cells remaining in the plate wells were rinsed in 200 μL PBS. PBS was carefully removed to avoid removing any loosely attached cells.
Once the PBS was removed, 85 μL cell lysis solution was added the cells in each well and incubated for 5-10 minutes at room temperature, to allow for complete cell lysis and detachment. mRNA was then prepared using the “mRNA Catcher PLUS plate” from Invitrogen, according to the protocol supplied. After the last wash, as much wash buffer as possible was aspirated without allowing the wells to dry. Elution Buffer (E3, 80 μL) was then added to each well. mRNA was then eluted by incubating the mRNA Catcher PLUS plate with Elution Buffer for 5 minutes at 68° C. and then immediately placing the plate on ice.
The eluted mRNA isolated was then used in a one-step real-time […] reaction, using components of the Ultra Sense Kit together with Applied Biosystems primer-probe mixes. Real-time PCR data was analyzed, using the Ct values, to determine the fold induction of each unknown sample, relative to the control (that is, relative to the control for each independent DMSO concentration).
An active compound was defined as one that caused a ≧20% increase in ApoA-I mRNA at a concentration less than or equal to 100 μM.

SMILES | Effect on ApoA-I mRNA levels
CCC(C)c1ccc(-n2c(-c3cc(C)c(OCCO)c(C)c3)nc3ccccc3c2=O)cc1 (stereo not drawn) [1 and 2, 3-(4-sec-butylphenyl)-2-(4-(2-hydroxyethoxy)-3,5-dimethylphenyl)quinazolin-4(3H)-one] | Active
CCC(C)c1ccc(-n2c(-c3cc(C)c(OCCO)c(C)c3)nc3cc(F)ccc3c2=O)cc1 (stereo not drawn) [Example 4, 3-(4-sec-butylphenyl)-7-fluoro-2-(4-(2-hydroxyethoxy)-3,5-dimethylphenyl)quinazolin-4(3H)-one] | Active
CCC(C)c1ccc(-n2c(-c3cc(C)c(OCCO)c(C)c3)nc3ccc(F)cc3c2=O)cc1 (stereo not drawn) [Example 9, 3-(4-sec-butylphenyl)-6-fluoro-2-(4-(2-hydroxyethoxy)-3,5-dimethylphenyl)quinazolin-4(3H)-one] | Active
Cc1cc(-c2nc3ccccc3c(=O)n2-c2ccc(C(F)(F)F)cc2)cc(C)c1OCCO [Example 11, 2-(4-(2-hydroxyethoxy)-3,5-dimethylphenyl)-3-(4-(trifluoromethyl)phenyl)quinazolin-4(3H)-one] | Active
Cc1cc(-c2nc3ccccc3c(=O)n2-c2ccc(N3CCOCC3)cc2)cc(C)c1OCCO [Example 21, 2-(4-(2-hydroxyethoxy)-3,5-dimethylphenyl)-3-(4-morpholinophenyl)quinazolin-4(3H)-one] | Active
Cc1cc(-c2nc3ccccc3c(=O)n2-c2ccc(C(C)(C)C)cc2)cc(C)c1OCCO [Example 22, 3-(4-tert-butylphenyl)-2-(4-(2-hydroxyethoxy)-3,5-dimethylphenyl)quinazolin-4(3H)-one] | Active
CC(=O)Nc1ccc(-n2c(-c3cc(C)c(OCCO)c(C)c3)nc3ccccc3c2=O)cc1 [Example 23, N-(4-(2-(4-(2-hydroxyethoxy)-3,5-dimethylphenyl)-4-oxoquinazolin-3(4H)-yl)phenyl)acetamide] | Active
Cc1cc(-c2nc3ccccc3c(=O)n2-c2ccc(NC(=O)C(C)C)cc2)cc(C)c1OCCO [Example 24, N-(4-(2-(4-(2-hydroxyethoxy)-3,5-dimethylphenyl)-4-oxoquinazolin-3(4H)-yl)phenyl)isobutyramide] | Active
COC(=O)c1ccc(-n2c(-c3cc(C)c(OCCO)c(C)c3)nc3ccccc3c2=O)cc1 [Example 25, methyl 4-(2-(4-(2-hydroxyethoxy)-3,5-dimethylphenyl)-4-oxoquinazolin-3(4H)-yl)benzoate] | Active
Cc1cc(-c2nc3ccccc3c(=O)n2-c2ccc(C3CCCCC3)cc2)cc(C)c1OCCO [Example 26, 3-(4-cyclohexylphenyl)-2-(4-(2-hydroxyethoxy)-3,5-dimethylphenyl)quinazolin-4(3H)-one] | Active
Cc1cc(-c2nc3ccccc3c(=O)n2-c2ccc(NC=O)cc2)cc(C)c1OCCO [Example 27, N-(4-(2-(4-(2-hydroxyethoxy)-3,5-dimethylphenyl)-4-oxoquinazolin-3(4H)-yl)phenyl)formamide] | Active
Cc1cc(-c2nc3ccccc3c(=O)n2-c2ccc(N)cc2)cc(C)c1OCCO [Example 28, 3-(4-aminophenyl)-2-(4-(2-hydroxyethoxy)-3,5-dimethylphenyl)quinazolin-4(3H)-one] | Active
Cc1cc(-c2nc3ccccc3c(=O)n2-c2ccc(NS(C)(=O)=O)cc2)cc(C)c1OCCO [Example 29, N-(4-(2-(4-(2-hydroxyethoxy)-3,5-dimethylphenyl)-4-oxoquinazolin-3(4H)-yl)phenyl)methanesulfonamide] | Active
Cc1cc(-c2nc3ccccc3c(=O)n2-c2ccc(NS(=O)(=O)C(C)C)cc2)cc(C)c1OCCO [Example 31, N-(4-(2-(4-(2-hydroxyethoxy)-3,5-dimethylphenyl)-4-oxoquinazolin-3(4H)-yl)phenyl)propane-2-sulfonamide] | Active
Cc1cc(-c2nc3ccccc3c(=O)n2-c2ccc(N(C)C)cc2)cc(C)c1OCCO [Example 32, 3-(4-(dimethylamino)phenyl)-2-(4-(2-hydroxyethoxy)-3,5-dimethylphenyl)quinazolin-4(3H)-one] | Active
CCC(C)c1ccc(-n2c(-c3ccc(OCCO)c(C)c3)nc3ccccc3c2=O)cc1 (stereo not drawn) [Example 33, 3-(4-sec-butylphenyl)-2-(4-(2-hydroxyethoxy)-3-methylphenyl)quinazolin-4(3H)-one] | Active
Cc1cc(-c2nc3ccccc3c(=O)n2-c2ccc(Cl)cc2)ccc1OCCO [Example 34, 3-(4-chlorophenyl)-2-(4-(2-hydroxyethoxy)-3-methylphenyl)quinazolin-4(3H)-one] | Active

SMILES | Effect on ApoA-I mRNA levels
CCC(C)c1ccc(-n2c(-c3cccnc3)nc3ccccc3c2=O)cc1 (stereo not drawn) [Example 35, 3-(4-sec-butylphenyl)-2-(pyridin-3-yl)quinazolin-4(3H)-one] | Active
O=c1c2ccccc2nc(-c2cnc3ccccc3c2)n1-c1ccc(Cl)cc1 [Example 36, 3-(4-chlorophenyl)-2-(quinolin-3-yl)quinazolin-4(3H)-one] | Active
CCC(C)c1ccc(-n2c(-c3cncc(F)c3)nc3ccccc3c2=O)cc1 (stereo not drawn) [Example 37, 3-(4-sec-butylphenyl)-2-(5-fluoropyridin-3-yl)quinazolin-4(3H)-one] | Active
O=c1c2ccccc2nc(-c2ccc(Cl)nc2)n1-c1ccc(Cl)cc1 [Example 38, 3-(4-chlorophenyl)-2-(6-chloropyridin-3-yl)quinazolin-4(3H)-one] | Active
CCC(C)c1ccc(-n2c(-c3ccc(Cl)nc3)nc3ccccc3c2=O)cc1 (stereo not drawn) [Example 39, 3-(4-sec-butylphenyl)-2-(6-chloropyridin-3-yl)quinazolin-4(3H)-one] | Active
CCC(C)c1ccc(-n2c(-c3ccc(OC)nc3)nc3ccccc3c2=O)cc1 (stereo not drawn) [Example 40, 3-(4-sec-butylphenyl)-2-(6-methoxypyridin-3-yl)quinazolin-4(3H)-one] | Active
O=c1c2ccccc2nc(-c2ccc(Br)nc2)n1-c1ccc(Cl)cc1 [Example 41, 2-(6-bromopyridin-3-yl)-3-(4-chlorophenyl)quinazolin-4(3H)-one] | Active
CCC(C)c1ccc(-n2c(-c3ccc(Br)nc3)nc3ccccc3c2=O)cc1 (stereo not drawn) [Example 42, 2-(6-bromopyridin-3-yl)-3-(4-sec-butylphenyl)quinazolin-4(3H)-one] | Active
CCN(CC)c1ccc(-c2nc3ccccc3c(=O)n2-c2ccc(Cl)cc2)cn1 [Example 43, 3-(4-chlorophenyl)-2-(6-(diethylamino)pyridin-3-yl)quinazolin-4(3H)-one] | Active
CCC(C)c1ccc(-n2c(-c3ccc(N(CC)CC)nc3)nc3ccccc3c2=O)cc1 (stereo not drawn) [Example 44, 3-(4-sec-butylphenyl)-2-(6-(diethylamino)pyridin-3-yl)quinazolin-4(3H)-one] | Active
CCC(C)c1ccc(-n2c(-c3cncnc3)nc3ccccc3c2=O)cc1 (stereo not drawn) [Example 45, 3-(4-sec-butylphenyl)-2-(pyrimidin-5-yl)quinazolin-4(3H)-one] | Active
CCC(C)c1ccc(-n2c(-c3ccc(C)nc3)nc3ccccc3c2=O)cc1 (stereo not drawn) [Example 46, 3-(4-sec-butylphenyl)-2-(6-methylpyridin-3-yl)quinazolin-4(3H)-one] | Active
Cc1ccc(-c2nc3ccccc3c(=O)n2-c2ccc(Cl)cc2)cn1 [Example 47, 3-(4-chlorophenyl)-2-(6-methylpyridin-3-yl)quinazolin-4(3H)-one] | Active
O=c1c2ccccc2nc(-c2ccc(N3CCCCC3)nc2)n1-c1ccc(Cl)cc1 [Example 48, 3-(4-chlorophenyl)-2-(6-(piperidin-1-yl)pyridin-3-yl)quinazolin-4(3H)-one] | Active
CCC(C)c1ccc(-n2c(-c3ccc(N4CCCCC4)nc3)nc3ccccc3c2=O)cc1 (stereo not drawn) [Example 49, 3-(4-sec-butylphenyl)-2-(6-(piperidin-1-yl)pyridin-3-yl)quinazolin-4(3H)-one] | Active
O=c1c2ccccc2nc(-c2ccc(Oc3ccccc3)nc2)n1-c1ccc(Cl)cc1 [Example 50, 3-(4-chlorophenyl)-2-(6-phenoxypyridin-3-yl)quinazolin-4(3H)-one] | Active
